From PubChem BioAssay AID296 (DTP/NCI, 2004) come the findings set out here.

The experiment has as its system MX-1 breast xenograft, nude mice, tumor weight T/C. The experiment in a line: NCI In Vivo Anticancer Drug Screen. Data for tumor model Human Mammary Carcinoma MX-1 Xenograft (intrarenal inoculation) in NU/NU Swiss (nude) mice. Conditions: endpoint: mean tumor weight change, higher = larger tumour. An outline of the steps: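 Tumor-bearing mice were treated with test compound alongside a vehicle-treated control group. Survival or tumor size was measured, and activity is expressed as the treated-group value divided by the control-group value.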

Setting [1] is: dose: 0.75 mg/kg/injection, schedule: Q01DX010 (sc), vehicle: saline.
Setting [2] is: dose: 1.5 mg/kg/injection, schedule: Q01DX010 (sc), vehicle: saline.
The mark [3] stands for this setting: dose: 300.0 mg/kg/injection, schedule: Q04DX003 (sc), vehicle: saline with Tween-80.
Where [4] appears, read: dose: 600.0 mg/kg/injection, schedule: Q04DX003 (sc), vehicle: saline with Tween-80.
The mark [5] stands for this setting: dose: 1200.0 mg/kg/injection, schedule: Q04DX003 (sc), vehicle: saline with Tween-80.
[6] abbreviates: dose: 150.0 mg/kg/injection, schedule: Q04DX003 (ip), vehicle: saline with Tween-80.
[7] abbreviates: dose: 300.0 mg/kg/injection, schedule: Q04DX003 (ip), vehicle: saline with Tween-80.

Values joined by “and” are separate entries in the source; they are usually repeats but may differ in a detail not shown here. Equal values may be shown once. Inconclusive results are not listed.

On to `O=[N+]([O-])c1ccc(-n2[nH]nnc2=S)cc1`, for which the T/C is 158 % of control (dose: 200.0 mg/kg/injection, schedule: Q04DX003 (sc), vehicle: Klucel (hydroxypropylcellulose) (HPC)); 151 % of control (dose: 400.0 mg/kg/injection, schedule: Q04DX003 (sc), vehicle: Klucel (hydroxypropylcellulose) (HPC)); 169 % of control (dose: 800.0 mg/kg/injection, schedule: Q04DX003 (sc), vehicle: Klucel (hydroxypropylcellulose) (HPC)).
Regarding `O=CC(O)C(O)C(O)C(O)C(=O)O.[NH-]C1CCCCC1[NH-].[Pt+2]` (stereo unspecified), the T/C was 48 % of control (dose: 9.38 mg/kg/injection, schedule: Q04DX003 (sc), vehicle: suspension in saline) and 28 % of control (dose: 18.75 mg/kg/injection, schedule: Q04DX003 (sc), vehicle: suspension in saline).
In the case of `O=C1C=C[C@H](O)[C@@]2(CO)O[C@@H]12`, the T/C (dose: 3.12 mg/kg/injection, schedule: Q04DX003 (sc), vehicle: saline with Tween-80) was 106 % of control and the T/C (dose: 6.25 mg/kg/injection, schedule: Q04DX003 (sc), vehicle: saline with Tween-80) was 85 % of control.
Consider `Nc1ncn(C2OC(CO)C(O)C2O)c(=O)n1` (stereo unspecified), for which the T/C is 69 % of control (dose: 0.38 mg/kg/injection, schedule: Q01DX010 (sc), vehicle: saline); 58 % of control and 68 % of control under setting [1]; 25 % of control under setting [2]; 50 % of control (dose: 2.5 mg/kg/injection, schedule: Q04DX003 (sc), vehicle: saline); 6 % of control and 14 % of control (dose: 20.0 mg/kg/injection, schedule: Q04DX003 (sc), vehicle: saline); 8 % of control (dose: 150.0 mg/kg/injection, schedule: Q04DX003 (sc), vehicle: saline). Further, the T/C runs as follows: (dose: 200.0 mg/kg/injection, schedule: Q04DX003 (sc), vehicle: saline) 52 % of control; (dose: 200.0 mg/kg/injection, schedule: Q04DX003 (sc), vehicle: suspension in saline) 5 % of control and 7 % of control; (dose: 300.0 mg/kg/injection, schedule: Q04DX003 (sc), vehicle: saline) 7 % of control; (dose: 400.0 mg/kg/injection, schedule: Q04DX003 (sc), vehicle: saline) 15 % of control; (dose: 600.0 mg/kg/injection, schedule: Q04DX003 (sc), vehicle: saline) 2 % of control; (dose: 800.0 mg/kg/injection, schedule: Q04DX003 (sc), vehicle: saline) 5 % of control. The T/C (dose: 1200.0 mg/kg/injection, schedule: Q04DX003 (sc), vehicle: saline) was -29 % of control; the T/C (dose: 1600.0 mg/kg/injection, schedule: Q04DX003 (sc), vehicle: saline) is 2 % of control; the T/C (dose: 1600.0 mg/kg/injection, schedule: Q04DX003 (sc), vehicle: suspension in saline) was 15 % of control.
For `CC(=O)Nc1ccc(O)c(O)c1`, the T/C is 75 % of control under setting [3], 52 % of control under setting [4] and 47 % of control under setting [5].
`OCC1OC(n2cnc3c2NC=NC[C@H]3O)CC1O` (stereo partly specified): the T/C runs as follows: (dose: 1.0 mg/kg/injection, schedule: Q01DX010 (sc), vehicle: water) 124 % of control; (dose: 2.0 mg/kg/injection, schedule: Q01DX010 (sc), vehicle: water) 41 % of control; (dose: 8.0 mg/kg/injection, schedule: Q01DX010 (sc), vehicle: water) 28 % of control.
Turning to `COc1c(CNC(=O)CCl)cc2[nH]c(C)cc2c1CNC(=O)CCl`, the T/C was 100 % of control (dose: 250.0 mg/kg/injection, schedule: Q04DX003 (sc), vehicle: Klucel (hydroxypropylcellulose) (HPC)); 55 % of control (dose: 1000.0 mg/kg/injection, schedule: Q04DX003 (sc), vehicle: Klucel (hydroxypropylcellulose) (HPC)); 58 % of control (dose: 2000.0 mg/kg/injection, schedule: Q04DX003 (sc), vehicle: Klucel (hydroxypropylcellulose) (HPC)).
`c1ccc(OCC2CO2)c(OCC2CO2)c1` (stereo unspecified): the T/C runs as follows: under setting [6], 95 % of control; under setting [7], 99 % of control.
Turning to `CCN1/C(=C/C=C/C=C/c2sc3ccccc3[n+]2CC)Sc2ccccc21`, the T/C (dose: 1.5 mg/kg/injection, schedule: Q04DX003 (sc), vehicle: suspension in saline) is 56 % of control; the T/C (dose: 3.0 mg/kg/injection, schedule: Q04DX003 (sc), vehicle: suspension in saline) is 35 % of control; the T/C (dose: 6.0 mg/kg/injection, schedule: Q04DX003 (sc), vehicle: suspension in saline) was 71 % of control.
On to `N#Cc1ccc(NN=O)nc1`, for which the T/C was 110 % of control (dose: 12.5 mg/kg/injection, schedule: Q04DX003 (ip), vehicle: water); 18 % of control (dose: 25.0 mg/kg/injection, schedule: Q04DX003 (ip), vehicle: water); 18 % of control (dose: 50.0 mg/kg/injection, schedule: Q04DX003 (ip), vehicle: water); 20 % of control (dose: 100.0 mg/kg/injection, schedule: Q04DX003 (ip), vehicle: water).
Regarding `O=S1(=O)C=C(c2ccccc2)C(c2ccccc2)=C1`, the T/C reads like this: under setting [3], 80 % of control; under setting [4], 71 % of control; under setting [5], 83 % of control; (dose: 2400.0 mg/kg/injection, schedule: Q04DX003 (sc), vehicle: saline with Tween-80) 74 % of control.
Turning to `O=[n+]1c2ccccc2n([O-])c2ccccc21.[Cl][Ni][Cl]`, the T/C by setting is: (dose: 75.0 mg/kg/injection, schedule: Q04DX003 (sc), vehicle: saline with Tween-80) 90 % of control; (dose: 150.0 mg/kg/injection, schedule: Q04DX003 (sc), vehicle: saline with Tween-80) 53 % of control.
In the case of `c1ccc([Te][Te]c2ccccc2)cc1`, the T/C (dose: 75.0 mg/kg/injection, schedule: Q04DX003 (ip), vehicle: saline with Tween-80) is 117 % of control; the T/C under setting [6] was 80 % of control; the T/C under setting [7] was 91 % of control.
In the case of `c1cc(-c2cc3ccc(C4=NCCN4)cc3[nH]2)ccc1C1=NCCN1`, the T/C is, setting by setting: (dose: 25.0 mg/kg/injection, schedule: Q04DX003 (sc), vehicle: saline) 66 % of control; (dose: 50.0 mg/kg/injection, schedule: Q04DX003 (sc), vehicle: saline) 73 % of control; (dose: 100.0 mg/kg/injection, schedule: Q04DX003 (sc), vehicle: saline) 50 % of control.
In the case of `COc1cccc2c1C(=O)c1c(O)c3c(c(O)c1C2=O)C[C@@](O)(C(=O)CO)C[C@@H]3OC1CC(N)C(O)C(C)O1` (stereo partly specified), the T/C (dose: 0.25 mg/kg/injection, schedule: Q01DX010 (ip), vehicle: water) is 46 % of control; the T/C (dose: 0.5 mg/kg/injection, schedule: Q01DX010 (ip), vehicle: water) is 37 % of control; the T/C under setting [1] was 159 % of control; the T/C (dose: 1.0 mg/kg/injection, schedule: Q01DX010 (ip), vehicle: water) is 10 % of control; the T/C under setting [2] is 84 % of control; the T/C (dose: 3.0 mg/kg/injection, schedule: Q01DX010 (sc), vehicle: saline) is 94 % of control. In addition, the T/C reads like this: (dose: 4.0 mg/kg/injection, schedule: Q04DX003 (sc), vehicle: water) 61 % of control; (dose: 6.0 mg/kg/injection, schedule: Q01DX010 (sc), vehicle: saline) 52 % of control; (dose: 6.0 mg/kg/injection, schedule: Q01DX010 (sc), vehicle: water) 69 % of control; (dose: 8.0 mg/kg/injection, schedule: Q04DX003 (sc), vehicle: water) 61 % of control.
Take `C[Si](C)(CCl)N[Si](C)(C)CCl`: the T/C is, setting by setting: under setting [3], 50 % of control; under setting [4], 35 % of control.
Turning to `CC1(C)CC1(Br)Br`, the T/C reads like this: (dose: 25.0 mg/kg/injection, schedule: Q01DX010 (sc), vehicle: saline with Tween-80) 71 % of control; (dose: 100.0 mg/kg/injection, schedule: Q01DX010 (sc), vehicle: saline with Tween-80) 118 % of control; (dose: 200.0 mg/kg/injection, schedule: Q01DX010 (sc), vehicle: saline with Tween-80) 153 % of control.
As for `COC1=C(C)C(=O)C2=C(C1=O)C1C3CC4=C(C(=O)C(OC)=C(C)C4=O)C(CNC(=O)C(C)=O)N3C(C#N)C(C2)N1C` (stereo unspecified), the T/C (dose: 1.0 mg/kg/injection, schedule: Q04DX003 (sc), vehicle: Klucel (hydroxypropylcellulose) (HPC)) was 104 % of control and the T/C (dose: 4.0 mg/kg/injection, schedule: Q04DX003 (sc), vehicle: Klucel (hydroxypropylcellulose) (HPC)) is 69 % of control.
As to `COc1cc2c3c(cccc3c1)C(=O)N(CCN(C)C)C2=O`, the T/C is 100 % of control under setting [3] and 103 % of control under setting [4].
